Measured values published in ChEMBL document CHEMBL1201862, “PubChem BioAssay data set” (2004).
Activity calls are given as the source filed them. For most assays here, no stated cut-off is given here; in the data, actives have a measured EC50 and inactives only a lower limit.

Tests used:
[1] = biological target: DNA dC->dU-editing enzyme APOBEC-3A (Homo sapiens, UniProt P31941); experiment: A3A deaminase inhibition for selectivity – biochemical, dose response (AID 504722); assay type: functional
DNA dC->dU-editing enzyme APOBEC-3A, sequence (P31941 whole entry): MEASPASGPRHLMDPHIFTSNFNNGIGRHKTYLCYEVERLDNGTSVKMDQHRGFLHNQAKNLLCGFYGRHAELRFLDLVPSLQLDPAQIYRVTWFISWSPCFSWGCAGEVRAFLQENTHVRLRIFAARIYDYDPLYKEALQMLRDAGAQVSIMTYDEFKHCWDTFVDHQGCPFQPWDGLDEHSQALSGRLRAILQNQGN

[2] = biological target: DNA dC->dU-editing enzyme APOBEC-3G (Homo sapiens, UniProt Q9HC16); experiment: Dose Response confirmation of small molecule APOBEC3G DNA Deaminase Inhibitors via a fluorescence-based single-stranded DNA deaminase assay. [Related pubchem assays (depositor defined):AID493012, AID493028]; assay type: functional
DNA dC->dU-editing enzyme APOBEC-3G, sequence (Q9HC16 whole entry): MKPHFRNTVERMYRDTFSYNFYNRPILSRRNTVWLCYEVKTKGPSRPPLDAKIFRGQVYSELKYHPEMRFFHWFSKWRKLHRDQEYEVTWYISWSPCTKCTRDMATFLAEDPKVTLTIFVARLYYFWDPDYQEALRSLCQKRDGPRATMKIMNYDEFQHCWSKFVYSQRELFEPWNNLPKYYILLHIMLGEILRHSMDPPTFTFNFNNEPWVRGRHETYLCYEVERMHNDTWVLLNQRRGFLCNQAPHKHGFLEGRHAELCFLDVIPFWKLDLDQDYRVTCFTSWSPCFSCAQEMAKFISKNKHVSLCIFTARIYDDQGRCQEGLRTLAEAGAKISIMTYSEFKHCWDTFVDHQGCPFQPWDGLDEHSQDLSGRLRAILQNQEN

[3] = biological target: T1, Alkaline phosphatase, tissue-nonspecific isozyme (Homo sapiens, UniProt P05186); experiment: potency against alkaline phosphatase TNAP – biochemical, luminescent, dose response, SAR follow-up (AID 1056)
T1 sequence (P05186 whole entry): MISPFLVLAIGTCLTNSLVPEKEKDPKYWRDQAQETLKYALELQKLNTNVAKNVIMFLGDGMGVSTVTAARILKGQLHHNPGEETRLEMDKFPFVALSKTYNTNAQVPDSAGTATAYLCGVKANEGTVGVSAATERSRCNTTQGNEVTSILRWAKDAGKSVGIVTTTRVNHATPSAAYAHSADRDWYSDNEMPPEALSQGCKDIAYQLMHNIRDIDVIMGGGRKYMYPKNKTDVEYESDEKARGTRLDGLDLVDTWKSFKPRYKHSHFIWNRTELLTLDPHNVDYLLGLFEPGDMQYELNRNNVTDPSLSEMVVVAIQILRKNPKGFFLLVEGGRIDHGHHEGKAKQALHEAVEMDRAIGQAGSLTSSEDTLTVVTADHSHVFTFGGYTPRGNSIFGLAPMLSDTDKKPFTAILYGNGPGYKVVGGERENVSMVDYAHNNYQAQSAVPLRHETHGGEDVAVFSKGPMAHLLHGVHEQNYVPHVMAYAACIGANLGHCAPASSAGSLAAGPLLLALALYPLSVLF

[4] = A cytotoxicity screen of small molecule inhibitors of the PhoP region in Salmonella typhi identified in the primary screen. [Related pubchem assays: 1850, 1864, 1985 ]; assay type: functional
Coagulation factor XII = biological target: T2, Coagulation factor XII (Homo sapiens, UniProt P00748); assay type: functional;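 further: activated factor XIIa alpha cleaving a fluorogenic AMC peptide substrate; inhibitor potency from loss of enzyme activity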
T2 sequence (P00748 whole entry): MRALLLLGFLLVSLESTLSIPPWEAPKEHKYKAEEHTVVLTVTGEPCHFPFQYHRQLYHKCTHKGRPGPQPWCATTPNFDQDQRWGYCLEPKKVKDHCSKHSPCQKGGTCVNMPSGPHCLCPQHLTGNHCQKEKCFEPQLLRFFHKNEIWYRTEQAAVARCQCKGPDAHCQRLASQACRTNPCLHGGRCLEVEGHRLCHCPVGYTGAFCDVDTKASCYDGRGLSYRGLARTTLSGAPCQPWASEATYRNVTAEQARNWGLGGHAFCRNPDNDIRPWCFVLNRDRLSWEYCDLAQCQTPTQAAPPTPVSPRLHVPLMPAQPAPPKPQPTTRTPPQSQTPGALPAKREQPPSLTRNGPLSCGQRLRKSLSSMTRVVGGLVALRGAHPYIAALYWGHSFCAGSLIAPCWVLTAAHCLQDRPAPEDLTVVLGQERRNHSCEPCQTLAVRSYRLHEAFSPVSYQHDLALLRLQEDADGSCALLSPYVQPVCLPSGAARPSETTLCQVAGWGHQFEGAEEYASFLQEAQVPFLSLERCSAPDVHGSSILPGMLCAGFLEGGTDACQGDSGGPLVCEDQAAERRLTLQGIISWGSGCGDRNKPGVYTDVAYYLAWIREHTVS

[5] = biological target: Voltage-dependent T-type calcium channel subunit alpha-1H (Homo sapiens, UniProt O95180); assay type: functional;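 further: channel activity triggered by adding a high calcium stimulation buffer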
Voltage-dependent T-type calcium channel subunit alpha-1H, sequence (O95180 whole entry): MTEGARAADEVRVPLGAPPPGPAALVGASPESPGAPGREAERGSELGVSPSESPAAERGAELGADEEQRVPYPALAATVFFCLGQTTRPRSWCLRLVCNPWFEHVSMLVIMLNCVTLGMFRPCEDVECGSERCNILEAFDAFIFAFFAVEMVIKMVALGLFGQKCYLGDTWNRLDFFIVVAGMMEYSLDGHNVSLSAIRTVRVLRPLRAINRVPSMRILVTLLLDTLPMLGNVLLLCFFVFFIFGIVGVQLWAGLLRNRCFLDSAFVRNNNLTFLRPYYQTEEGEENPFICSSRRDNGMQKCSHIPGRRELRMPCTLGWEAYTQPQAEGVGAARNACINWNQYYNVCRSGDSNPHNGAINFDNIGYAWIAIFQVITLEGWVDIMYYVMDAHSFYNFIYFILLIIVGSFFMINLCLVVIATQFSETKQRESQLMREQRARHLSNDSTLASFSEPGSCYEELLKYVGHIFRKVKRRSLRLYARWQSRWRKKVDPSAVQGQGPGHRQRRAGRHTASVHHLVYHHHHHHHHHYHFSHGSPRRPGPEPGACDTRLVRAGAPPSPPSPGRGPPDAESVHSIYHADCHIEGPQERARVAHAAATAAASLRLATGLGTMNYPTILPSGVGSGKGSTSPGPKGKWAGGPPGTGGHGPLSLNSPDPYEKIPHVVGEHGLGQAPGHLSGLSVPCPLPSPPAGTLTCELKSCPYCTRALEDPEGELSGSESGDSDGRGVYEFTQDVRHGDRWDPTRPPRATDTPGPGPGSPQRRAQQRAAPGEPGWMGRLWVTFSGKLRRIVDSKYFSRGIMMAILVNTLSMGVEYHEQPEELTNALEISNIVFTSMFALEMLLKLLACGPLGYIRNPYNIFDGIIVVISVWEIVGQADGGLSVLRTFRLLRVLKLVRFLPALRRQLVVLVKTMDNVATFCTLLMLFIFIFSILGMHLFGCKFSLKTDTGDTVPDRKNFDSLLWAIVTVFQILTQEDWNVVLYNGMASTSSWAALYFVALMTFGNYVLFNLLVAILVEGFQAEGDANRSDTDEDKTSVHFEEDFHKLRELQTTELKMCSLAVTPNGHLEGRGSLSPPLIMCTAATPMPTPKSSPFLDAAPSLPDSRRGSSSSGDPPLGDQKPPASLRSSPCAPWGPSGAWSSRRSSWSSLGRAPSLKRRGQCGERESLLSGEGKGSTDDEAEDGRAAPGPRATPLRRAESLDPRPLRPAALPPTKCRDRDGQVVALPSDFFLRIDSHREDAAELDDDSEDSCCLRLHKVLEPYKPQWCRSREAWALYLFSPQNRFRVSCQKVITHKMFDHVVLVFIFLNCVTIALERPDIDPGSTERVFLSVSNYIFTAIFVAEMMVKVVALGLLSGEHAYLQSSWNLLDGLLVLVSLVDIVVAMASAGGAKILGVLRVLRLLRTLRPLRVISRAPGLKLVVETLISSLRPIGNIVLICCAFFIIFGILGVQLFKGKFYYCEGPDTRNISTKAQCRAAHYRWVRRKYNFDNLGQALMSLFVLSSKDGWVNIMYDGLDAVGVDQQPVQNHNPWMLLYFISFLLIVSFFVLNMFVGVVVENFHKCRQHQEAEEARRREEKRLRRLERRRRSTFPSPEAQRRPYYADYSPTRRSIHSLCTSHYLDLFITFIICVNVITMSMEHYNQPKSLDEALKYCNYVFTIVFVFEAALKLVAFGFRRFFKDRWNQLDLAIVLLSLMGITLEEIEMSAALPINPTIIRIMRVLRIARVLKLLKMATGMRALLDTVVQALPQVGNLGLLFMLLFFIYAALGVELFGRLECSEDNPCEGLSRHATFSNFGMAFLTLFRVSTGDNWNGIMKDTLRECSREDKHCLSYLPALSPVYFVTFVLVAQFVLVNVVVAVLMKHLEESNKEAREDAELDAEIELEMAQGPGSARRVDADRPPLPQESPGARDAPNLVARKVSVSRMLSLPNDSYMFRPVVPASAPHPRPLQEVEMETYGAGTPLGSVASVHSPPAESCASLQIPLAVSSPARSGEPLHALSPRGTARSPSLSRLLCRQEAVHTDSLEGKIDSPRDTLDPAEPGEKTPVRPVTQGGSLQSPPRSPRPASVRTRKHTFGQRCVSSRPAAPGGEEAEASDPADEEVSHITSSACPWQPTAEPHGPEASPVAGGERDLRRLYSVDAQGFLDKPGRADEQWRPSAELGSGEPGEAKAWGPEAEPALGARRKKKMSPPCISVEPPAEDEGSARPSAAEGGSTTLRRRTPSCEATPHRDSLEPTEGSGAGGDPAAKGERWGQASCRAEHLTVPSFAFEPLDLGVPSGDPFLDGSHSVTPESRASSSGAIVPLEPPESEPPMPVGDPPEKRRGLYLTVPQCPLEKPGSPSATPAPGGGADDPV

[6] = alpha-synuclein stem-loop luciferase translation blockers – H4 neuroglioma cells, luminescence, confirmation (AID 1988); assay type: functional, cell-based
[7] = luciferase reporter signal suppression in cells – H4 neuroglioma cells, luminescence, dose response (AID 1990); assay type: functional, cell-based
[8] = Luminescence Cell-Based Dose Response HTS to Identify Inhibitors of 5'UTR Stem-Loop Driven Prion Protein mRNA Translation in H4 Neuroglioblastoma Cells. [Related pubchem assays: 1827 (Project Summary), 1813 (Primary HTS)]; assay type: functional
BJ [9] = experiment: cells; assay type: functional, cell-based; conditions: Homo sapiens
cells = assay type: functional, cell-based
[10] = alpha-synuclein stem-loop translation blockers – luminescence, H4 neuroglioblastoma cells, dose confirmation, confirmation (AID 2454); assay type: functional, cell-based;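 further: H4 neuroglioblastoma cells carrying an alpha-synuclein 5'UTR luciferase reporter; potency for inhibition of the luciferase signal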
BJ [11] = experiment: BJ-TERT fibroblast viability loss – cell-based, RAS-independent, luminescence, dose response (AID 1933); assay type: functional; conditions: Homo sapiens
[12] = DRD fibroblast viability loss – cell-based, non-viral oncogenic, luminescence, dose response (AID 1934); assay type: functional; conditions: Homo sapiens
BJ [13] = experiment: BJ-TERT-LT-ST fibroblast viability loss – cell-based, RAS-independent, luminescence, dose response (AID 1935); assay type: functional; conditions: Homo sapiens;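 further: BJ fibroblasts immortalized with TERT plus LT and ST oncogenes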
[14] = luciferase reporter signal reduction – luminescence, H4-C neuroglioblastoma cells, dose response (AID 2458); assay type: functional, cell-based;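 further: H4 neuroglioblastoma cells stably carrying a luciferase reporter gene fusion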

Question: For `C=CCn1c(S)nnc1-c1cccc(S(=O)(=O)N(CC)CC)c1`, which IC50 [1] is on record?
Answer: > 100 µM (inactive)

Question: And the IC50 [2]?
Answer: 5.67 µM (active)

Question: For `COc1ccc(C(C)(C)C)cc1S(=O)(=O)Nc1cccnc1`, which IC50 [3] is on record?
Answer: 26.4 µM (active)

Question: For `CN(C)c1nnnn1-c1ccc(Oc2ccccc2)cc1`, which EC50 [4] is on record?
Answer: > 50 µM (active)

Question: For `CSc1ccccc1C(=O)C1CCCN(S(=O)(=O)N(C)C)C1` (stereo not given), which IC50 (Coagulation factor XII) is on record?
Answer: > 50 µM (inactive)

Question: Which EC50 [5] does the source give for `Cc1nc2cc(-c3ccccc3)nn2c(C)c1CCC(=O)N1CCN(c2ccccc2)CC1` here?
Answer: 4.59 µM (active)

Question: And the EC50 [6]?
Answer: 16.1 µM (active)

Question: And the EC50 [7]?
Answer: 16.6 µM (active)

Question: What about the EC50 [8] of the same compound?
Answer: 13.6 µM (active)

Question: For `Cc1ccc(NC(=O)CSc2nc3ccccc3c3nc4ccccc4n23)cc1`, which EC50 (BJ [9]) is on record?
Answer: 24.2 µM (inconclusive)

Question: What about the EC50 (cells) of the same compound?
Answer: 0.963 µM (active)

Question: And the EC50 [6]?
Answer: < 0.1 µM (active)

Question: What about the EC50 [7] of the same compound?
Answer: 0.142 µM (active)

Question: What about the EC50 [10] of the same compound?
Answer: 0.992 µM (active)

Question: What about the EC50 (BJ [11]) of the same compound?
Answer: 1.83 µM (inconclusive)

Question: And the EC50 [12]?
Answer: 0.784 µM (active)

Question: And the EC50 (BJ [13])?
Answer: 6.66 µM (inconclusive)

Question: What about the EC50 [14] of the same compound?
Answer: 0.518 µM (active)

Question: And the EC50 [8]?
Answer: < 0.1 µM (active)

Question: For `Cc1ccccc1NC(NC(=O)c1cccs1)C(Cl)(Cl)Cl` (stereo not given), which EC50 [5] is on record?
Answer: 5.15 µM (active)
